The subject of series [1] is Pseudomonas monteilii. Put plainly: Effect on growth-promoting bacteria in liquid culture. As to conditions: C + N 5 mM combined; F3, F4, F5 0.5% v/v; atrazine 5 mM; LB medium, 32° C.; Gompertz model. It counts as cell-based. As for the experimental part: To evaluate the effect of the compositions prepared in Example 6 on growth-promoting bacteria, a model strain of Pseudomonas monteilii was used. The microorganism was inoculated in liquid LB medium (initial optical density at 600 nm=0.1), and incubated in Erlenmeyer flasks at 32° C., 180 rpm. The effect of the active compounds (citral (C)+pelargonic acid (N), at a combined concentration of 5 mM), F3, F4 and F5 (all three at 0.5% v/v) and atrazine (5 mM) was assessed by adding each treatment to the culture medium at the moment of inoculation. The positive growth control was performed without adding any compound. Liquid samples were taken during the growth, and the biomass of the cultures was evaluated using the drop plate method described by Herigstad et al. (2001). Three repetitions were carried out in different times and the results were analyzed with the software Statistica (StatSoft, 2007) to adjust them to the Gompertz model, and thus calculate the growth parameters.

Series [2] relates to Solanum lycopersicum. Put plainly: Pre-emergence germination assay in Petri dishes. It counts as in vivo. As to conditions: 168 h, S. lycopersicum, after 7 days of exposure, combined concentration of both active ingredients, read-out: Germination IC50 (Confidence limit 95%). As for the experimental part:
(§1) Aqueous extracts containing binary mixtures of formulations: F1 (citral+pelargonic acid) and F2 (thymoquinone+pelargonic acid), in both cases with a 1:1 ratio between the active compounds and with the addition of an emulsifier (soy lecithin at 35% w/w, YPF Agro, 2022) at 0.2% v/v, were tested in Petri dishes following the methodology disclosed in U.S. Pat. No. 11,083,197, with some modifications. […] The extracts were placed onto 9-cm diameter paper disks in Petri dishes. Then, ten seeds of each species were placed onto paper disks. Subsequently, the dishes were closed under the following experimental conditions: room temperature, 26.0±1.8° C.; relative humidity, 50±9.7%; and photoperiod, 12:12. The seeds were considered germinated if their roots were longer than 1 mm. Aqueous extracts without the addition of the bioactive formulation were used as negative control, whereas atrazine was used as positive control. The assays were performed in triplicates for each concentration.
(§2) The IC50 were obtained using the software POLO PLUS (LeOra Software Company).
(§3) An aqueous extract comprising the emulsifier used in Example 1 at 0.2% w/w was prepared and seeds of different species were exposed to the extract following a methodology as the one used in Example 1. Pure water was used as a negative control.

In series [3] the test system is Amaranthus hybridus. Put plainly: Pre-emergence germination assay in Petri dishes. It is filed as in vivo. As to conditions: 168 h, A. hybridus, after 7 days of exposure, combined concentration of both active ingredients, read-out: Germination IC50 (Confidence limit 95%). As for the experimental part: as §1, §2, §3
The subject of series [4] is Lolium multiflorum. Put plainly: Pre-emergence germination assay in Petri dishes. As to conditions: 168 h, L. multiflorum, after 7 days of exposure, combined concentration of both active ingredients, read-out: Germination IC50 (Confidence limit 95%). It is filed as in vivo. As to the method: as §1, §2, §3
Series [5] has as its system seedlings of A. hybridus. Put plainly: Early post-emergence damage to photosystem II (Fv/Fm fluorometry). The following applies: 5 mM. It counts as in vivo, Amaranthus hybridus. As to the method: • Plant material and culturing conditions Seeds of Amaranthus hybridus were sown on plastic boxes of 15.5×11×4 cm with moist absorbing paper (25 seeds per box). The boxes were placed in a culture chamber at 22° C. and 50 μmol photons m^−2 s^−1 with a photoperiod of 16 hours. […] The application volume for each treatment was 10 ml per box on the absorbing paper. After 7 days post-application, to avoid possible chlorosis symptoms due to a lack of nutrients, 5 ml of nutritive solution were added to each box, with the following formulation: 5.0 mM Ca(NO3)2, 5.0 mM KNO3, 2.0 mM MgSO4, 1.0 mM KH2PO4, 20.0 μM FeNaEDTA, 5.0 μM H3BO3, 0.9 μM MnCl2, 0.8 μM ZnCl2, 0.3 μM CuSO4 y 0.01 μM Na2MoO4, pH 5.5-6.5. The experiments were finished 12 days post-application.
The tested formulations were F1 and F2, both at 5 mM. […]
The objective was to assess the early post-emergence effect of the tested formulations on seedlings of A. hybridus of 7 days post-sowing. At 1, 2, 5, 7 and 12 days post-application the fluorometry measurements (Fv/Fm) were carried out to ascertain the damage to photosystem II, and the plants with bleaching or chlorosis symptoms were counted. […]
For the experiments, three boxes per treatment were used: both experiments had 5 treatments. Each experiment was repeated 3 times (assays 1, 2 and 3), and each assay was analyzed separately. […]

With `CCNc1nc(Cl)nc(NC(C)C)n1` [Atrazine, atrazine], in series [1], the Duplication time is 22.03 min, the Lag pase length is on record as 1.3 h and the “maximum growth rate μmax” value was 1.89 h⁻¹. Besides, the IC50 – broadly, the concentration needed to halve the response being measured – in series [2] amounted to 37.5 mM. For the same molecule, the IC50 in series [3] stood at 41 mM. Besides, in series [4], the IC50 turned out to be 39 mM. In series [5] (day 1 to 12 days post-application), the “Course of Fv/Fm values” is “gradual fall in the Fv/Fm values from day 1 until reaching minimum or non-measurable values at 12 days”. Further, the “Effects on photosystem II in comparison to treatments F1 and F2” value in series [5] (every assay) is recorded as “lower effects”.

Source of the values: patent US20240415120A1, “BINARY BIOHERBICIDE COMPRISING PELARGONIC ACID” (YPF TECNOLOGÍA S.A., priority 2023, published 2024).
